Consider 2 compounds from patent US7192746B2, “α-Isomaltosyltransferase, process for producing the same and use thereof” (Kabushiki Kaisha Hayashibara Seibutsu Kagaku Kenkyujo, priority 2000, dated 2007).

The nature of data set [1]: Reducing power on the Somogyi-Nelson's method. The data set is classed as physicochemical.
Data set [2] relates to Escherichia coli IFO 3301 strain. The data set is described as follows: Assimilation test. The data set is classed as cell-based. The note with it: PYF medium with 0.5% saccharide, 37° C., four days, anaerobic.
The test system of data set [3] is α-isomaltosyl-transferring enzyme from Arthrobacter globiformis A19. As to the kind of experiment: Specificity to transferring acceptor. It is filed as biochemical. To be noted: partially purified enzyme, panose as saccharide donor, 10 units/g substrate, 3.2% (w/v), 30° C., pH 6.0, 24 hours. The procedure, abridged: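 Candidate acceptor saccharides mixed with panose donor at equal concentration, 10 units/g substrate enzyme, total saccharide 3.2% (w/v), reacted 24 h at 30 °C, pH 6.0. Transfer product formation scored positive/negative by GLC (mono-/disaccharides) or HPLC (tri- and higher).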

As for `OCC1OC2OCC3O[C@H](O[C@H]4C(O)C(CO)OC(OCC5O[C@H](O[C@@H](C1O)C2O)C(O)C(O)[C@@H]5O)C4O)C(O)C(O)[C@@H]3O` (stereo partly drawn) [Cyclotetrasaccharide, cyclo{→6)-α-D-glucopyranosyl-(1→3)-α-D-glucopyranosyl-(1→6)-α-D-glucopyranosyl-(1→3)-α-D-glucopyranosyl-(1→}], the Reducing power result in data set [1] was “below a detectable level”. Moreover, in data set [2], the Assimilability result is on record as “− (negative (−) when the post culture had a pH of 6.0 or higher)”.
Take `OC[C@@H](O)[C@@H](O[C@H]1O[C@H](CO)[C@@H](O)[C@H](O)[C@H]1O)[C@H](O)[C@@H](O)CO` [Maltitol, maltitol]: the “Product of transferring reaction, Enzyme of Stain A19” value in data set [3] is “+ (a saccharide-transferred product was formed in an amount of over one percent but below 10% to the total sugars)”.
